The text below walks through data of US7622497B2, “Derivatives of gambogic acid and analogs as activators of caspases and inducers of apoptosis” (Cytovia, Inc., priority 2003, dated 2009).

Assay [1] deals with DLD. Nature of the assay: Caspase cascade activation (DEVD-R110 fluorogenic substrate) in DLD cells. Type of assay: cell-based, Human. As to conditions: 24 h incubation; for EC50: Homo sapiens, read-out: Caspase potency EC50 DLD; for Caspase activity (Ratio) DLD: ratio of net RFU of compound to control, 0.16 to 10 μM final. On the procedure: (§1) Human breast cancer cell lines T-47D and DLD were grown according to media component mixtures designated by American Type Culture Collection+10% FCS Invitrogen Corporation), in a 5% CO2-95% humidity incubator at 37° C. T-47D and DLD cells were maintained at a cell density between 30 and 80% confluency and for HL-60 at a cell density of 0.1 to 0.6×10^6 cells/ml. Cells were harvested at 600×g and resuspended at 0.65×10^6 cells/mL into appropriate media+10% FCS. An aliquot of 45 μl of cells was added to a well of a 96-well microtiter plate containing 5 μl of a 10% DMSO in RPMI-1640 media solution containing 1.6 to 100 μM of novel derivative of gambogic acid (0.16 to 10 μM final). An aliquot of 45 μl of cells was added to a well of a 96-well microtiter plate containing 5 μl of a 10%. DMSO in RPMI-1640 media solution without test compound as the control sample. The samples were mixed by agitation and then incubated at 37° C. for 24 h in a 5% CO2-95% humidity incubator. After incubation, the samples were removed from the incubator and 50 μl of a solution containing 20 μM of N-(Ac-DEVD)-N′-ethoxycarbonyl-R110 fluorogenic substrate SEQ ID NO:1 (Cytovia, Inc.; U.S. Pat. No. 6,335,429), 20% sucrose (Sigma), 20 mM DTT (Sigma), 200 mM NaCl (Sigma), 40 mM Na PIPES buffer pH 7.2 (Sigma), and 500 μg/ml lysolecithin (Calbiochem) was added. The samples were mixed by agitation and incubated at room temperature. Using a fluorescent plate reader (Model 1420 Wallac Instruments), an initial reading (T=0) was made approximately 1-2 min after addition of the substrate solution, employing excitation at 485 nm and emission at 530 nm, to determine the background fluorescence of the control sample. After approximately 3 h of incubation, the samples were read for fluorescence as above (T=3 h).
(§2) The Relative Fluorescence Unit values (RFU) were used to calculate the sample readings as follows: RFU(T=3h)−Control RFU(T=0)=Net RFU(T=3h)
(§3) The activity of caspase cascade activation was determined by the ratio of the net RFU value for derivatives of gambogic acid to that of control samples. The EC50 (nM) was determined by a sigmoidal dose-response calculation (Prism 2.0, GraphPad Software Inc.).

For another assay, the system named is T-47D. Nature of the assay: Caspase cascade activation (DEVD-R110 fluorogenic substrate) in T-47D cells. It is filed as cell-based, Human. Conditions: 24 h incubation; for EC50: Homo sapiens, T47D, read-out: Caspase potency EC50 T-47D; for Caspase activity (Ratio) T-47D: ratio of net RFU of compound to control, 0.16 to 10 μM final. How it is done:
as §1, §2, §3

For another assay, the system named is T47D. Briefly: Inhibition of cell proliferation (GI50), T47D. Conditions: Homo sapiens; T47D cells, 48 h, CellTiter 96 AQueous. Type of assay: cell-based. On the procedure:
(§4) T-47D, DLD-1, MX-1, SW620, H1299, HEK293T and HEK293H cells were grown and harvested as in Example 11. An aliquot of 90 μL of cells (2.2×10^4 cells/mL) was added to a well of a 96-well microtiter plate containing 10 μl of a 10% DMSO in RPMI-1640 media solution containing 1 nM to 100 μM of novel derivative of gambogic acid (Example 2; 0.1 nM to 10 μM final). An aliquot of 90 μL of cells was added to a well of a 96-well microtiter plate containing 10 μL of a 10% DMSO in RPMI-1640 media solution without compound as the control sample for maximal cell proliferation (AMax). The samples were mixed by agitation and then incubated at 37° C. for 48 h in a 5% CO2-95% humidity incubator. After incubation, the samples were removed from the incubator and 20 μL of CellTiter 96 AQUEOUS One Solution Cell Proliferation™ reagent (Promega) was added. The samples were mixed by agitation and incubated at 37° C. for 2-4 h in a 5% CO2-95% humidity incubator. Using an absorbance plate reader (Model 1420 Wallac Instruments), an initial reading (T=0) was made approximately 1-2 min after addition of the solution, employing absorbance at 490 nm. This determines the possible background absorbance of the test compounds. No absorbance for the derivative of gambogic acid was found at 490 nm. After the 2-4 h incubation, the samples were read for absorbance as above (ATest). […]

Another assay relates to SW620. Nature of the assay: Inhibition of cell proliferation (GI50), SW620. As to conditions: Homo sapiens, SW-620; SW620 cells, 48 h, CellTiter 96 AQueous. Type of assay: cell-based. On the procedure: as §4
The test system of another assay is HEK293H. Nature of the assay: Inhibition of cell proliferation (GI50), HEK293H. It is filed as cell-based. Conditions: HEK293-H; HEK293H cells, 48 h, CellTiter 96 AQueous. On the procedure:
as §4

The subject of a further assay is HEK293T. Nature of the assay: Inhibition of cell proliferation (GI50), HEK293T. It is filed as cell-based. Conditions: Homo sapiens, HEK-293T; HEK293T cells, 48 h, CellTiter 96 AQueous. How it is done:
as §4

A further assay relates to H1299. Briefly: Inhibition of cell proliferation (GI50), H1299. Conditions: Homo sapiens, NCI-H1299; H1299 cells, 48 h, CellTiter 96 AQueous. Type of assay: cell-based. How it is done: as §4
Another assay relates to MX-1. Briefly: Inhibition of cell proliferation (GI50), MX-1. Conditions: Homo sapiens, MX1; MX-1 cells, 48 h, CellTiter 96 AQueous. Type of assay: cell-based. On the procedure:
as §4

Assay [2] concerns DLD. Briefly: Inhibition of cell proliferation (GI50), DLD. It is filed as cell-based. Conditions: Homo sapiens; DLD cells, 48 h, CellTiter 96 AQueous. How it is done: as §4

For `CC(C)=CCCC1(C)C=Cc2c(O)c3c(c(CC=C(C)C)c2O1)OC12C(=CC4CC1C(C)(C)OC2(C/C=C(/C)C(=O)OCCN1CCOCC1)C4=O)C3=O` (centres unmarked) [Example 1, 2-(Morpholin-4-yl)-ethyl gambogate], in the assay on DLD [1], the EC50 stood at 0.35 µM and the “Caspase activity (Ratio) DLD” value amounted to 7.6. Moreover, in the assay on T-47D, the EC50 worked out at 0.303 µM and the “Caspase activity (Ratio) T-47D” value stood at 18.
For the molecule `CC(C)=CCCC1(C)C=Cc2c(O)c3c(c(CC=C(C)C)c2O1)OC12C(=CC4CC1C(C)(C)OC2(C/C=C(/C)C(=O)OCCN(C)C)C4=O)C3=O` (centres unmarked) [Example 2, 2-Dimethylaminoethyl gambogate], the EC50 in the assay on DLD [1] stood at 1.04 µM; in the assay on T-47D, 0.676 µM. Also, the “Caspase activity (Ratio) DLD” value with DLD [1] amounted to 7.2. The 50% growth inhibitory concentration (GI50) with T47D was found to be 0.187 µM; in the assay with SW620 it was 0.18 µM; with HEK293H, 0.192 µM; in the assay on HEK293T it was 0.44 µM; in the assay on H1299, 0.184 µM; in the assay on MX-1, 0.101 µM. Halving of growth in the assay on DLD [2] (GI50) required 0.173 µM. Besides, the “Caspase activity (Ratio) T-47D” value in the assay with T-47D is on record as 17.
`CC(C)=CCCC1(C)C=Cc2c(O)c3c(c(CC=C(C)C)c2O1)OC12C(=CC4CC1C(C)(C)OC2(C/C=C(/C)C(=O)NCCCN1CCN(C)CC1)C4=O)C3=O` (centres unmarked) [Example 3, N-[3-(4-Methyl-piperazin-1-yl)-propyl]gambogamide]: in the assay on DLD [1], the EC50 is 2.12 µM and the “Caspase activity (Ratio) DLD” value worked out at 5.8. Also, in the assay with T-47D, the EC50 worked out at 1.66 µM and the “Caspase activity (Ratio) T-47D” value came out at 13.
In the same order, the values of `CC(C)=CCCC1(C)C=Cc2c(O)c3c(c(CC=C(C)C)c2O1)OC12C(=CC4CC1C(C)(C)OC2(C/C=C(/C)C(=O)NCCCN1CCOCC1)C4=O)C3=O` (centres unmarked) [Example 4, N-(3-Morpholin-4-yl-propyl)gambogamide] are 0.824 µM, 7.2, 0.638 µM and 15.
Turning to `COC(=O)/C(C)=C\CC12OC(C)(C)C3CC(C=C4C(=O)c5c(O)c6c(c(CC=C(C)C)c5OC431)OC(C)(CCC(O)C(C)(C)O)C=C6)C2=O` (centres unmarked) [Example 5, Methyl 37,38-Dihydroxy-gambogate], in the assay on DLD [1], the EC50 worked out at 1.29 µM and the “Caspase activity (Ratio) DLD” value is 7.2. In addition, in the assay on T-47D, the EC50 was 0.75 µM and the “Caspase activity (Ratio) T-47D” value came to 17.
Turning to `COC(=O)/C(C)=C\CC12OC(C)(C)C3CC(C1=O)C(N1CCOCC1)C1C(=O)c4c(O)c5c(c(CC=C(C)C)c4OC132)OC(C)(CCC(O)C(C)(C)O)C=C5` (centres unmarked) [Example 6, Methyl 37,38-Dihydroxy-9,10-dihydro-10-morpholinyl-gambogate], in the assay with DLD [1], the EC50 was 2.4 µM and the “Caspase activity (Ratio) DLD” value came to 9.2. Besides, in the assay with T-47D, the EC50 turned out to be 1.17 µM and the “Caspase activity (Ratio) T-47D” value is reported as 17.
In the same order, the values of `COC(=O)/C(C)=C\CC12OC(C)(C)C3CC(C1=O)C(N1CCOCC1)C1C(=O)c4c(O)c5c(c(CC=C(C)C)c4OC132)OC(C)(CCC=O)C=C5` (centres unmarked) [Example 7, Methyl 20-Ethylaldehyde-9,10-dihydro-10-morpholinyl-morellinate] are 1.36 µM, 5.8, 1.11 µM and 16.
